# In patent US5340565A, “Tumor or cancer cell killing therapy and agents useful therefor” (priority 1992, dated 1994):
# Like-named read-outs stand apart in the source and are kept apart here.
# How the values were obtained:
# [1] = tested on: ADPRT; details: Sims et al, Biochem. 21:1813-1821, 1982; cited from earlier work
# [2] = tested on: human squamous cell carcinoma (SCC) (ABII) of the head and neck xeno-grafted to nude mice; experiment: Growth of human SCC (ABII) xenografted to nude mice, CDDP with or without metoclopramide; format: in vivo; details: for Reduction in AUC (area under plotted tumor growth curves), agent given alone: schedules A and B, metoclopramide 2.0 mg/kg i.p. (x1 or x3), CDDP 7.5 mg/kg i.p.
# Description: Cisplatin (cis-diamine-dichloroplatinum=CDDP) is a heavy metal complex with alkylating properties which allow bifunctional linking to DNA. CDDP has been used successfully as a chemotherapeutic agent to treat several types of human cancers. Since CDDP treatment regimes induce nausea and vomiting, metoclopramide is often co-administered therewith as an antiemetic drug.
# Two administration schedules were tested: (A) metoclopramide (2.0 mg/kg i.p.) one hour before CDDP (7.5 mg/kg i.p.) and (B) metoclopramide (2.0 mg/kg×3 treatment times) given separately concomitant to CDDP (7.5 mg/kg i.p.) and 24 hr and 48 hr after CDDP administration. In both schedules the combined treatment was compared with CDDP alone, metoclopramide alone and with physiologic saline treated tumor bearing animals (controls). The tumor line used was a poorly difterentiated human SSC originating from the nose. There were n=10 animals in each group. Tumor diameters and animal weight were recorded and plotted twice weekly for 21 days. Treatment efficacies were compared using the area under the plotted growth curves (AUC).
# [3] = Cytotoxicity by trypan blue exclusion in HML; format: cell-based; details: human, mononuclear leukocytes
# [4] = tested on: ADPRT (adenosine diphosphate ribosyl transferase); experiment: ADPRT activity in permeabilized HML after 30 min exposure; format: cell-based, human; details: average of duplicates
# Description: The data were recorded as cpm TCA precipitable [^3 H]NAD per 1×10^6 cells.
# [5] = tested on: Human mononuclear leukocytes (HML); experiment: Cytotoxicity by trypan blue exclusion in HML; format: cell-based; details: for % Dead Cells 30 min: 0.5 h
# [6] = tested on: adenocarcinoma transplanted in C3H mice; details: dose of 10 mg/kg, Kjellen and Pero 1987 abstract; cited from earlier work
# [7] = tested on: calmodulin; details: cited from earlier work
# [8] = 100 μM agent, 30 min incubation, HML, read-out: % Dead Cells 30 min
# [9] = 500 μM agent, 30 min incubation, HML, read-out: % Dead Cells 30 min
compound,measurement,setting,value
Nc1cccc(C(=O)O)c1 [3-aminobenzoic acid],Inhibition of ADPRT,[1],failed to inhibit ADPRT
Nc1ccc(C(=O)O)cn1 [6-amino nicotinic acid],Inhibition of ADPRT,[1],failed to inhibit ADPRT
"N.N.[Cl][Pt][Cl] [CDDP, cis-diamine-dichloroplatinum]",AUC as % of control tumor growth,"[2]; schedule B: CDDP 7.5 mg/kg i.p., metoclopramide 2.0 mg/kg x3 (concomitant, 24 hr, 48 hr), 21 days",72 % of control tumor growth
same,"Reduction in AUC (area under plotted tumor growth curves), agent given alone",[2]; 21 days,significant reduction of AUC-values
"CN(C)CCCN1c2ccccc2Sc2ccc(Cl)cc21 [Chlorpromazine, 2chloro-N,N-dimethyl-10H-phenothiazine-10-propanamine]","cytotoxicity at 0.5 h, 100 µM",[3]; [8],50%
same,"cytotoxicity at 0.5 h, 500 µM",[3]; [9],100%
same,ADPRT Activity,[4]; 100 μM agent,1508 cpm TCA precipitable [3H]NAD p
same,ADPRT Activity,[4]; 500 μM agent,890 cpm TCA precipitable [3H]NAD p
CC(CN1CCN(CCOCCO)CC1)CN1c2ccccc2Sc2ccccc21 (centres unmarked) [Dixyrazine],"cytotoxicity at 0.5 h, 100 µM",[3]; [8],13%
same,"cytotoxicity at 18 h, 100 µM","[3]; 100 μM agent, 18 hr incubation, HML, read-out: % Dead Cells 18 hr",78%
same,"cytotoxicity at 0.5 h, 500 µM",[3]; [9],79%
same,"cytotoxicity at 18 h, 500 µM","[3]; 500 μM agent, 18 hr incubation, HML, read-out: % Dead Cells 18 hr",100%
same,ADPRT Activity,[4]; 100 μM agent,385 cpm TCA precipitable [3H]NAD p
same,ADPRT Activity,[4]; 500 μM agent,850 cpm TCA precipitable [3H]NAD p
OO [H2 O2],% Dead Cells 30 min,[5]; 100 µM,5%
same,% Dead Cells 30 min,[5]; 300 µM,5%
same,% Dead Cells 30 min,[5]; 500 µM,7%
same,% Dead Cells 30 min,[5]; 1000 µM,12%
same,% Dead Cells 18 hr,[5]; 100 µM,40%
same,% Dead Cells 18 hr,[5]; 300 µM,41%
same,% Dead Cells 18 hr,[5]; 500 µM,55%
same,% Dead Cells 18 hr,[5]; 1000 µM,71%
same,ADPRT Activity,[4]; 100 μM agent,1800 cpm TCA precipitable [3H]NAD p
same,ADPRT Activity,[4]; 300 μM agent,2700 cpm TCA precipitable [3H]NAD p
same,ADPRT Activity,[4]; 500 μM agent,2900 cpm TCA precipitable [3H]NAD p
same,ADPRT Activity,[4]; 1000 μM agent,3000 cpm TCA precipitable [3H]NAD p
"CCN(CC)CCNC(=O)c1cc(Cl)c(N)cc1OC [Metoclopramide, 4-amino-5-chloro-N-[(2-diethylamino)ethyl]-2-methoxy-benzamide]","cytotoxicity at 0.5 h, 500 µM",[3],7%
same,"cytotoxicity at 0.5 h, 2000 µM",[3],13%
same,"cytotoxicity at 0.5 h, 5000 µM",[3],10%
same,"cytotoxicity at 0.5 h, 10000 µM",[3],22%
same,"cytotoxicity at 18 h, 500 µM",[3],8%
same,"cytotoxicity at 18 h, 2000 µM",[3],29%
same,"cytotoxicity at 18 h, 5000 µM",[3],58%
same,"cytotoxicity at 18 h, 10000 µM",[3],88%
same,Effect of adding metoclopramide to CDDP on AUC,[2]; schedule A: metoclopramide 2.0 mg/kg i.p. one hour before CDDP 7.5 mg/kg i.p.,did not give any additive effect
same,Effect of adding metoclopramide to CDDP on AUC,"[2]; schedule B: metoclopramide 2.0 mg/kg x3, concomitant to CDDP 7.5 mg/kg i.p. and 24 hr and 48 hr after",potentiated the effect of CDDP
same,"Reduction in AUC (area under plotted tumor growth curves), agent given alone",[2]; 21 days,In neither schedule A nor B did metoclopramide alone induce any significant reduction in AUC
same,ADPRT Activity,[4]; 500 μM agent,530 cpm TCA precipitable [3H]NAD p
same,ADPRT Activity,[4]; 2000 μM agent,703 cpm TCA precipitable [3H]NAD p
same,ADPRT Activity,[4]; 5000 μM agent,950 cpm TCA precipitable [3H]NAD p
same,ADPRT Activity,[4]; 10000 μM agent,870 cpm TCA precipitable [3H]NAD p
"Cc1ccc(C2(O)CCN(CCCC(=O)c3ccc(F)cc3)CC2)cc1 [Moperone, 1(4-fluorophenyl)-4-[4-hydroxy-4(4-methylphenyl)1-piperidinyl]-1-butanone]","cytotoxicity at 0.5 h, 100 µM",[3]; [8],5%
same,"cytotoxicity at 0.5 h, 500 µM",[3]; [9],7%
same,"cytotoxicity at 0.5 h, 1000 µM","[3]; 1000 μM agent, 30 min incubation, HML, read-out: % Dead Cells 30 min",26%
same,"cytotoxicity at 18 h, 1000 µM","[3]; 1000 μM agent, 18 hr incubation, HML, read-out: % Dead Cells 18 hr",100%
same,ADPRT Activity,[4]; 100 μM agent,529 cpm TCA precipitable [3H]NAD p
same,ADPRT Activity,[4]; 500 μM agent,712 cpm TCA precipitable [3H]NAD p
same,ADPRT Activity,[4]; 1000 μM agent,1112 cpm TCA precipitable [3H]NAD p
NC(=O)c1cccnc1 [Nicotinamide],Radiosensitization of adenocarcinoma,[6],will radiosensitize
CC(CN(C)C)CN1c2ccccc2Sc2ccccc21 (centres unmarked) [Trimeprazine],"cytotoxicity at 0.5 h, 500 µM",[3],95%
same,"cytotoxicity at 0.5 h, 100 µM",[3]; [8],7%
same,ADPRT Activity,[4]; 100 μM agent,639 cpm TCA precipitable [3H]NAD p
same,ADPRT Activity,[4]; 500 μM agent,571 cpm TCA precipitable [3H]NAD p
"NCCCCCCNS(=O)(=O)c1cccc2ccccc12 [W-5, N(6-aminohexyl)-naphthalenesulfonamide]","cytotoxicity at 0.5 h, 50 µM","[3]; 50 μM agent, 30 min incubation, HML, read-out: % Dead Cells 30 min",< 5%
same,"cytotoxicity at 0.5 h, 100 µM",[3]; [8],< 5%
same,"cytotoxicity at 0.5 h, 200 µM","[3]; 200 μM agent, 30 min incubation, HML, read-out: % Dead Cells 30 min",7%
same,Calmodulin antagonist activity at fixed concentration,[7]; 50 μM,inactive
same,IC50,"[7]; Hidaka et al, Proc. Natl. Acad. Sci. U.S.A. 78:4354-4357, 1981, read-out: IC50 dose as calmodulin antagonist",~250 µM
same,ADPRT Activity,[4]; 50 μM agent,395 cpm TCA precipitable [3H]NAD p
same,ADPRT Activity,[4]; 100 μM agent,415 cpm TCA precipitable [3H]NAD p
same,ADPRT Activity,[4]; 200 μM agent,425 cpm TCA precipitable [3H]NAD p
"NCCCCCCNS(=O)(=O)c1cccc2c(Cl)cccc12 [W-7, N(6-aminohexyl)-5-chloro-1-naphthalenesulfonamide]","cytotoxicity at 0.5 h, 50 µM",[3],10%
same,"cytotoxicity at 0.5 h, 100 µM",[3],25%
same,"cytotoxicity at 0.5 h, 200 µM",[3],90%
same,ADPRT Activity,[4]; 50 μM agent,750 cpm TCA precipitable [3H]NAD p
same,ADPRT Activity,[4]; 100 μM agent,910 cpm TCA precipitable [3H]NAD p
same,ADPRT Activity,[4]; 200 μM agent,1480 cpm TCA precipitable [3H]NAD p
NC(=O)c1ccccc1 [benzamide],Radiosensitization of adenocarcinoma,[6],totally ineffective
O=C(O)c1ccccc1 [benzoic acid],Inhibition of ADPRT,[1],failed to inhibit ADPRT
O=C(O)c1ccncc1 [isonicotinic acid],Inhibition of ADPRT,[1],failed to inhibit ADPRT
"pyrazine 1,2-dicarboxylic acid",Inhibition of ADPRT,[1],failed to inhibit ADPRT
